This test concerns P388 leukemia ip, CD2F1 mice, survival T/C. Kind of test: NCI In Vivo Anticancer Drug Screen. Data for tumor model P388 Leukemia (intraperitoneal) in CD2F1 (CDF1) mice. As to conditions: endpoint: median survival time, higher = longer survival. The method in brief: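 Mice carrying the transplanted tumor received test compound or vehicle. Survival was recorded in each group, and the value is the treated-group measurement divided by that of the vehicle-treated control group.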

The mark [1] stands for this setting: dose: 12.5 mg/kg/injection, schedule: Q01DX009 (ip), vehicle: distilled water + Tween-80.
[2] abbreviates: dose: 25.0 mg/kg/injection, schedule: Q01DX009 (ip), vehicle: distilled water + Tween-80.
[3] abbreviates: dose: 50.0 mg/kg/injection, schedule: Q01DX009 (ip), vehicle: distilled water + Tween-80.
The mark [4] stands for this setting: dose: 60.0 mg/kg/injection, schedule: Q01DX005 (ip), vehicle: Klucel (hydroxypropylcellulose) (HPC).
Setting [5] is: dose: 120.0 mg/kg/injection, schedule: Q01DX005 (ip), vehicle: Klucel (hydroxypropylcellulose) (HPC).
Setting [6] is: dose: 50.0 mg/kg/injection, schedule: Q01DX009 (ip), vehicle: saline with Tween-80.
Setting [7] is: dose: 100.0 mg/kg/injection, schedule: Q01DX009 (ip), vehicle: saline with Tween-80.
Where [8] appears, read: dose: 240.0 mg/kg/injection, schedule: Q01DX005 (ip), vehicle: Klucel (hydroxypropylcellulose) (HPC).
The mark [9] stands for this setting: dose: 60.0 mg/kg/injection, schedule: Q01DX005 (ip), vehicle: saline with Tween-80.
[10] abbreviates: dose: 120.0 mg/kg/injection, schedule: Q01DX005 (ip), vehicle: saline with Tween-80.
Setting [11] is: dose: 240.0 mg/kg/injection, schedule: Q01DX005 (ip), vehicle: saline with Tween-80.
The mark [12] stands for this setting: dose: 25.0 mg/kg/injection, schedule: Q01DX009 (ip), vehicle: saline with Tween-80.
Setting [13] is: dose: 200.0 mg/kg/injection, schedule: Q01DX009 (ip), vehicle: saline with Tween-80.
The mark [14] stands for this setting: dose: 12.5 mg/kg/injection, schedule: Q01DX009 (ip), vehicle: saline.
The mark [15] stands for this setting: dose: 25.0 mg/kg/injection, schedule: Q01DX009 (ip), vehicle: saline.
Where [16] appears, read: dose: 50.0 mg/kg/injection, schedule: Q01DX009 (ip), vehicle: Klucel (hydroxypropylcellulose) (HPC).

Several values for one entry are separate records, joined by “and”; a condition that tells them apart may be missing. Equal values may be shown once. Toxic doses and inconclusive results are not listed.

`CCNC(=O)C(CCO)NC(=O)OCc1ccccc1` (stereo unspecified): the T/C under setting [1] is 118 % of control, the T/C under setting [2] is 101 % of control and the T/C under setting [3] was 110 % of control.

As to `CC1=NN(c2ccccc2)C(=O)C1C1c2ccccc2S(=O)(=O)c2ccccc21` (stereo unspecified), the T/C is 97 % of control under setting [4] and 87 % of control under setting [5].

For the compound `O=C(O)C1=C(C(=O)Nc2ccc(NC(=O)C3=C(C(=O)O)CCC3)cc2)CCC1`, the T/C runs as follows: under setting [1], 93 % of control; under setting [2], 98 % of control; under setting [3], 97 % of control; (dose: 100.0 mg/kg/injection, schedule: Q01DX009 (ip), vehicle: distilled water + Tween-80) 105 % of control; (dose: 200.0 mg/kg/injection, schedule: Q01DX009 (ip), vehicle: distilled water + Tween-80) 115 % of control.

Turning to `COc1ccc(C(=O)CC2CCCC(CC(=O)c3ccc(OC)cc3)N2C)cc1` (stereo unspecified), the T/C was 100 % of control under setting [6] and 101 % of control under setting [7].

With `FC(F)(F)C[P+](c1ccccc1)(c1ccccc1)c1ccccc1`, the T/C runs as follows: (dose: 12.5 mg/kg/injection, schedule: Q01DX001 (ip), vehicle: saline) 100 % of control and 109 % of control; (dose: 25.0 mg/kg/injection, schedule: Q01DX001 (ip), vehicle: saline) 108 % of control and 117 % of control; (dose: 50.0 mg/kg/injection, schedule: Q01DX001 (ip), vehicle: saline) 104 % of control.

On to `O=C(NC[N+]12CCO[B-]1(c1ccc(Cl)cc1)OCC2)c1ccccc1O` (stereo unspecified), for which the T/C reads like this: (dose: 50.0 mg/kg/injection, schedule: Q01DX005 (ip), vehicle: Klucel (hydroxypropylcellulose) (HPC)) 106 % of control; (dose: 100.0 mg/kg/injection, schedule: Q01DX005 (ip), vehicle: Klucel (hydroxypropylcellulose) (HPC)) 98 % of control; (dose: 200.0 mg/kg/injection, schedule: Q01DX005 (ip), vehicle: Klucel (hydroxypropylcellulose) (HPC)) 103 % of control.

Turning to `CNC(=O)NC(c1cc(OC)c(O)c(OC)c1)c1cc2c(cc1O)OCO2` (stereo unspecified), the T/C is 95 % of control under setting [4], 94 % of control under setting [5] and 87 % of control under setting [8].

In the case of `COc1cc2c(cc1-c1coc3cc4occc4cc3c1=O)OCO2`, the T/C is 87 % of control (dose: 8.75 mg/kg/injection, schedule: Q01DX005 (ip), vehicle: saline with Tween-80); 87 % of control (dose: 35.0 mg/kg/injection, schedule: Q01DX005 (ip), vehicle: saline with Tween-80); 89 % of control (dose: 70.0 mg/kg/injection, schedule: Q01DX005 (ip), vehicle: saline with Tween-80); 99 % of control (dose: 140.0 mg/kg/injection, schedule: Q01DX005 (ip), vehicle: saline with Tween-80).

For the compound `O=C(C[P+](c1ccccc1)(c1ccccc1)c1ccccc1)c1ccccc1`, the T/C is, setting by setting: under setting [9], 105 % of control; under setting [10], 108 % of control; under setting [11], 96 % of control.

Regarding `O=C(CCCc1ccc(N(CCCl)CCCl)cc1)OCCOc1ccccc1`, the T/C was 155 % of control (dose: 12.5 mg/kg/injection, schedule: Q01DX009 (ip), vehicle: saline with Tween-80); 223 % of control under setting [12]; 174 % of control and 200 % of control under setting [6].

Turning to `CC(=O)OCC1OC(OC(C)=O)C(N(CCCl)CCCl)C(OC(C)=O)C1OC(C)=O` (stereo unspecified), the T/C reads like this: (dose: 0.31 mg/kg/injection, schedule: Q01DX005 (ip), vehicle: water) 151 % of control; (dose: 0.62 mg/kg/injection, schedule: Q01DX005 (ip), vehicle: water) 151 % of control; (dose: 1.25 mg/kg/injection, schedule: Q01DX005 (ip), vehicle: distilled water + Tween-80) 181 % of control; (dose: 1.25 mg/kg/injection, schedule: Q01DX005 (ip), vehicle: water) 177 % of control; (dose: 2.5 mg/kg/injection, schedule: Q01DX005 (ip), vehicle: distilled water + Tween-80) 216 % of control; (dose: 2.5 mg/kg/injection, schedule: Q01DX005 (ip), vehicle: water) 213 % of control. For the same compound, the T/C (dose: 5.0 mg/kg/injection, schedule: Q01DX005 (ip), vehicle: water) is 110 % of control.

On to `COc1ccccc1NC(=S)Nc1ccccc1OC`, for which the T/C by setting is: under setting [7], 100 % of control; (dose: 100.0 mg/kg/injection, schedule: Q04DX003 (ip), vehicle: saline sonified) 100 % of control; under setting [13], 87 % of control; (dose: 200.0 mg/kg/injection, schedule: Q04DX003 (ip), vehicle: saline sonified) 100 % of control; (dose: 400.0 mg/kg/injection, schedule: Q01DX009 (ip), vehicle: saline with Tween-80) 91 % of control; (dose: 400.0 mg/kg/injection, schedule: Q04DX003 (ip), vehicle: saline sonified) 100 % of control.

For the compound `C/C=C\C=C/NC(=O)N1CCCC1`, the T/C is, setting by setting: under setting [9], 113 % of control; under setting [10], 118 % of control; under setting [11], 116 % of control.

As to `OCCNCCNCC[OH2+].OCCNCCNCC[OH2+].[Ni+2].[O-][Cl+3]([O-])([O-])[O-]`, the T/C under setting [14] was 100 % of control and the T/C under setting [15] is 98 % of control.

Consider `O=C(CCCBr)c1ccccc1`, for which the T/C by setting is: under setting [12], 107 % of control; under setting [6], 100 % of control; under setting [7], 107 % of control; under setting [13], 100 % of control.

For the compound `COc1cccc2c1C(=O)c1c(O)c3c(c(O)c1C2=O)C[C@@](O)(C(C)=O)C[C@@H]3OC1CC(N)C(OC2CC(N)C(OC)C(C)O2)C(C)O1` (stereo partly specified), the T/C by setting is: (dose: 3.13 mg/kg/injection, schedule: Q04DX003 (ip), vehicle: water) 110 % of control and 115 % of control; (dose: 6.25 mg/kg/injection, schedule: Q04DX003 (ip), vehicle: water) 119 % of control and 123 % of control; (dose: 50.0 mg/kg/injection, schedule: Q04DX003 (ip), vehicle: water) 112 % of control.

Turning to `CCOC(=O)C(=CNC1CC(OC2C[C@](O)(C(C)=O)Cc3c(O)c4c(c(O)c32)C(=O)c2c(OC)cccc2C4=O)OC(C)C1O)C(=O)OCC` (stereo partly specified), the T/C runs as follows: (dose: 6.25 mg/kg/injection, schedule: Q04DX003 (ip), vehicle: saline with Tween-80) 95 % of control; (dose: 12.5 mg/kg/injection, schedule: Q04DX003 (ip), vehicle: saline with Tween-80) 100 % of control; (dose: 25.0 mg/kg/injection, schedule: Q04DX003 (ip), vehicle: saline with Tween-80) 104 % of control; (dose: 50.0 mg/kg/injection, schedule: Q04DX003 (ip), vehicle: saline with Tween-80) 108 % of control.

With `COC(=O)C(N)=NCC(C)NC(=O)c1ccccc1` (stereo unspecified), the T/C runs as follows: under setting [16], 99 % of control; (dose: 100.0 mg/kg/injection, schedule: Q01DX009 (ip), vehicle: Klucel (hydroxypropylcellulose) (HPC)) 101 % of control; (dose: 200.0 mg/kg/injection, schedule: Q01DX009 (ip), vehicle: Klucel (hydroxypropylcellulose) (HPC)) 100 % of control.

As for `CCC(=O)CC1(C(=O)OC)NC(=S)NC(=O)C1C#N` (stereo unspecified), the T/C under setting [4] was 102 % of control, the T/C under setting [5] was 103 % of control and the T/C under setting [8] is 100 % of control.

With `COc1ccc(CSC(=S)Nc2cc(Cl)c(Cl)cc2Cl)cc1`, the T/C was 88 % of control under setting [14]; 97 % of control under setting [15]; 99 % of control (dose: 50.0 mg/kg/injection, schedule: Q01DX009 (ip), vehicle: saline); 93 % of control (dose: 50.0 mg/kg/injection, schedule: Q01DX009 (ip), vehicle: suspension in saline); 103 % of control (dose: 100.0 mg/kg/injection, schedule: Q01DX009 (ip), vehicle: suspension in saline).

Regarding `CCN(CC)C(=O)C(Cc1ccc(OC)c(OC)c1)C(Cc1ccc(OC)c(OC)c1)C(=O)O` (stereo unspecified), the T/C by setting is: (dose: 100.0 mg/kg/injection, schedule: Q04DX003 (ip), vehicle: other) 95 % of control; (dose: 200.0 mg/kg/injection, schedule: Q04DX003 (ip), vehicle: other) 95 % of control; (dose: 400.0 mg/kg/injection, schedule: Q04DX003 (ip), vehicle: other) 95 % of control.

For the compound `O=C1CSC(COc2ccc(Cl)cc2Cl)O1` (stereo unspecified), the T/C runs as follows: (dose: 25.0 mg/kg/injection, schedule: Q01DX009 (ip), vehicle: Klucel (hydroxypropylcellulose) (HPC)) 100 % of control; under setting [16], 97 % of control.

The values above are taken from PubChem BioAssay AID330 (DTP/NCI, 2004).
